From patent US20060014740A1 (priority 2003, published 2006) come the findings set out here.

Structures can show the parent of a compound that is named as a salt. Where two headings read alike, the source gives them in different places. Bounds are passed on as bounds.

In data set [1] the test system is AKT phosphorylation (Pi-AKT) in LNCaP cells. Briefly: AKT phosphorylation by Western blot in LNCaP cells. The class given is cell-based, human. Here is the method:
As another assessment of cytotoxicity, AKT inhibition was measured. […] The immunoblots were visualized by enhanced, chemiluminescence, and changes of relative levels of phospho-AKT compared to total AKT by analog treatment were quantified by densitometric analysis.
Prostate cell line LNCaP cells were treated with 30 μM of the compound of Formula: [drawing 54]
for the indicated period and time. The active form of AKT (Pi-AKT) and the β-Actin were quantified by Western blot analysis. […]
Prostate cell line LNCaP cells were treated with 10 μM of the compound of Formula: [drawing 55]
for the indicated period and time. The active form of AKT (Pi-AKT) and AKT were quantified by Western blot analysis. […]
Prostate cell line LNCaP cells were treated with 10 μM of the compound of Formula [drawing 56]
for the indicated period and time. The active form of AKT (Pi-AKT), AKT and β-Actin were quantified by Western blot analysis. […]
(In general: A western blot detects proteins with antibodies after separation by electrophoresis.)

Data set [2] concerns LNCaP human prostate cancer cells. Put plainly: SRB cytotoxicity assay, LNCaP. It is filed as cell-based. As to conditions: Homo sapiens. Here is the method: (§1) For in vitro cytotoxicity screening, 1000 to 5000 cells were plated into each well of 96-well plates depending on growth rate, and exposed to different concentrations of a test compound for 96 h in three to five replicates. All the compounds were dissolved in dimethyl sulfoxide at 5 to 20 mM, and diluted to desired concentrations in complete culture medium. Cell numbers at the end of the drug treatment were measured by the SRB assay (Gududuru et al., “Synthesis and Biological Evaluation of Novel Cytotoxic Phospholipids for Prostate Cancer,” Bioorg. Med. Chem. Lett. 14:4919-4923 (2004); Rubinstein et at., “Comparison of in vitro Anticancer-Drug-Screening Data Generated with a Tetrazolium Assay Versus a Protein Assay Against a Diverse Panel of Human Tumor Cell Lines,” J. Naatl, Cancer Inst. 82:1113-1118 (1990), each of which is hereby incorporated by reference in its entirety). Briefly, the cells were fixed with 10% of trichloroacetic acid, stained with 0.4% SRB, and the absorbances at 540 nm was measured using a plate reader (DYNEX Technologies, Chantilly, Va.).
(§2) The antiproliferative activity of all the synthesized compounds was evaluated against five human prostate cancer cell lines and in RH7777 cells (negative control) using the sulforhodamine B (SRB) assay (see description in Example 5 above).
(§3) The chosen cell lines represent different basal levels of active AKT and LPL receptor expression (discussed later). Cells were exposed to a wide range of concentrations (0 to 100 μM) of the indicated compound for 96 h. Cell numbers at the end of treatment were measured using the sulforhodamine B (SRB) assay^5.
(§4) Cells were exposed to a wide range of concentrations (0 to 100 μM) of the particular compound for 96 h in 96 well plates. Cells were fixed with 10% trichloroacetic acid, washed five times with water. The plates were air dried overnight and fixed cells were stained with SRB solution. The cellular protein-bound SRB was measured at 540 nm using a plate reader. Cell numbers at the end of the treatment were measured.
(§5) Cells were exposed to a wide range of concentrations (0 to 100 μM) of the particular compound for 96 h in 96-well plates. Cells were fixed with 10% trichloroacetic acid, washed five times with water. The plates were air dried overnight and fixed cells were stained with SRB solution. The cellular protein-bound SRB was measured at 540 nm using a plate reader. Cell numbers at the end of the treatment were calculated as a percentage of untreated control.

For data set [3], the system named is RH7777 rat hepatoma cells. Briefly: SRB cytotoxicity assay, RH7777 control cell line. As to conditions: Rattus norvegicus, read-out: IC50 RH7777. It is filed as cell-based. Here is the method:
as §1, §2, §3, §4, §5

Data set [4] deals with TSU-Pr1 human prostate cancer cells. Put plainly: SRB cytotoxicity assay, TSU-Pr1. It is filed as cell-based. To be noted: Homo sapiens, read-out: IC50 TSU-Pr1. How it is done:
(§6) Dr. Mitchell Steiner at University of Tennessee Health Science Center, kindly provided PPG-1 and TSU-PrI cells.
as §1, §2, §3, §4, §5

Data set [5] deals with PPC-1 human prostate cancer cells. Put plainly: SRB cytotoxicity assay, PPC-1. It is filed as cell-based. As to conditions: Homo sapiens, read-out: IC50 PPC-1. Here is the method:
as §6, §1, §2, §3, §4, §5

Data set [6] has as its system PC-3 human prostate cancer cells. Put plainly: SRB cytotoxicity assay, PC-3. It is filed as cell-based. As to conditions: Homo sapiens, 96 h, read-out: IC50 PC-3. How it is done: as §1, §2, §3, §4, §5
Data set [7] has as its system DU-145 human prostate cancer cells. Put plainly: SRB cytotoxicity assay, DU-145. It is filed as cell-based. To be noted: Homo sapiens. How it is done: as §1, §2, §3, §4, §5
Data set [8] has as its system human breast cancer cell line (MCF-7). Put plainly: SRB cytotoxicity assay, MCF-7. It is filed as cell-based. As to conditions: Homo sapiens, read-out: IC50 MCF-7. Here is the method: as §1
In vitro cytotoxicity assay was performed by the same sulforhodamine B (SRB) assay (described above). The compounds shown in Table 8 below where tested for activity against the breast cancer and ovarian cancer cell lines.
as §3, §4
In general terms: Sulforhodamine B stains cellular protein and so reports cell mass.

Setting [9] is: Example 14, 10 μM, 1 h, (−) control 1.00.
The mark [10] stands for this setting: stated in the text of the LNCaP AKT experiments (Examples 12-14), test of the IC50 not named, read-out: IC50.
Where [11] appears, read: RH7777, Table 4, control cell line, 96 h.
The mark [12] stands for this setting: LNCaP, Table 4, 96 h, read-out: IC50 LNCaP.
The mark [13] stands for this setting: DU-145, read-out: IC50 DU-145, Table 4, 96 h.
Setting [14] is: MCF7, Table 8, breast cancer cell line.
Where [15] appears, read: LNCaP, Example 11 table, 96 h, read-out: IC50 LNCaP.
Setting [16] is: TSU-Pr1, Example 11 table, 96 h.
Where [17] appears, read: DU-145, Example 11 table, 96 h, read-out: IC50 DU145.

In the case of `CCCCCCCCCCCCCCCCCCNC[C@H](CO)NC.Cl`, the “Time to almost complete inhibition of AKT phosphorylation” value in data set [1] (Example 14, 10 μM) is not above 1 h. Further, the “Relative abundance (Pi-AKT/AKT)” value in [1] (setting [9]) came out at 0.07; in data set [1] (Example 14, 10 μM, 2 h), 0.06; in [1] (Example 14, 10 μM, 3 h), 0.04; in [1] (Example 14, 10 μM, 4 h), 0.12; in [1] (Example 14, 10 μM, 6 h), 0.12; in data set [1] (Example 14, 10 μM, 8 h), 0.14. For the same compound, the “Relative abundance (Pi-AKT/AKT)” value in data set [1] (Example 14, 10 μM, 10 h) amounted to 0.14. The “Relative abundance (Pi-AKT/β-Actin)” value in [1] (setting [9]) amounted to 0.08; in data set [1] (Example 14, 10 μM, 2 h), 0.06; in data set [1] (Example 14, 10 μM, 3 h) it was 0.04; in data set [1] (Example 14, 10 μM, 4 h) it was 0.11; in data set [1] (Example 14, 10 μM, 6 h), 0.10; in data set [1] (Example 14, 10 μM, 8 h) it was 0.11. The “Relative abundance (Pi-AKT/β-Actin)” value in [1] (Example 14, 10 μM, 10 h) is on record as 0.43.
Consider `CCCCCCCCCCCCCCCCCCNC(=O)[C@H](CO)NC(=O)OC(C)(C)C`, for which the IC50 (commonly the concentration needed to halve the response being measured) in [2] (setting [10]) was 10.3 µM. Besides, the “Relative abundance (Pi-AKT/β-Actin)” value is 1.29 in [1] (30 μM, 1 h, (−) control 1.00); 1.01 in data set [1] (30 μM, 2 h); 0.71 in data set [1] (30 μM, 6 h); 0.50 in data set [1] (30 μM, 12 h); 0.32 in data set [1] (30 μM, 24 h); less than 0.10 in [1] (30 μM, 48 h). Also, the “Relative abundance (Pi-AKT/β-Actin)” value in [1] (30 μM, 72 h) is on record as less than 0.10. For the same compound, the “AKT phosphorylation inhibited to” value in data set [1] (30 μM, by 12 hours of treatment) is reported as 50%.
For the compound `CCCCCCCCCCCCCCCCCCNC[C@H](CO)NC.Cl` [drawing 55], the IC50 in [2] (setting [10]) was 3.3 µM. Further, the “Time to almost complete inhibition of AKT phosphorylation” value in [1] (Example 13, 10 μM) is not above 6 h. Moreover, the “Relative abundance (Pi-AKT/AKT)” value in [1] (Example 13, 10 μM, 6 h, (−) control 1.00) is reported as 0.07; in [1] (Example 13, 10 μM, 12 h) it was 0.31; in [1] (Example 13, 10 μM, 24 h), 1.02; in data set [1] (Example 13, 10 μM, 36 h), 0.63; in data set [1] (Example 13, 10 μM, 48 h) it was 0.94.
As to `CCCCCCCCCCCCCCCCCCNC(=O)[C@@H]1CSC(c2cc(F)cc(F)c2)N1` (mixture of isomers) [Compound 23, (2RS, 4R)-2-(3,5-Difluoro-phenyl)-thiazolidine-4-carboxylic acid octadecylamide], the melting point (in general, the temperature, or range, at which the solid turns liquid) came to 113 °C. Moreover, in [3] (setting [11]), the half-inhibitory concentration (IC50) was more than 20 µM. The IC50 in data set [2] (setting [12]) came out at 11.2 µM. Also, in [4] (TSU-Pr1, Table 4, 96 h), the IC50 is more than 20 µM. Moreover, the IC50 in data set [5] (PPC-1, Table 4, 96 h) is 10.6 µM. Besides, the IC50 in [6] (Table 4) is more than 20 µM. Also, in data set [7] (setting [13]), the IC50 was more than 20 µM.
As to `CCCCCCCCCCCCCCCCCCCCNC[C@@H](N)CO` [S4], the IC50 in [3] (RH7777, Example 10 table, 0 to 100 μM for 96 h) is 2.9 µM; in data set [2] (LNCaP, Example 10 table, 96 h, read-out: IC50 LNCaP), 5.1 µM; in data set [4] (TSU-Pr1, Example 10 table, 96 h), 2.2 µM; in [8] (MCF7, Example 10 table, 96 h) it was 4.6 µM; in [5] (PPC-1, Example 10 table, 96 h), 1.9 µM; in data set [6] (Example 10 table), 2.6 µM. The IC50 in data set [7] (DU-145, read-out: IC50 DU-145, Example 10 table, 96 h) is 4.1 µM.
As for `COc1ccc(C2N[C@H](C(=O)O)CS2)cc1` (some centres unmarked), the IC50 in data set [3] (RH7777, 96 h) was more than 100 µM; in data set [2] (LNCaP, 96 h, read-out: IC50 LNCaP), approximately 50 µM; in [4] (TSU-Pr1, 96 h), more than 100 µM; in data set [8] (MCF7, 96 h), approximately 100 µM; in [5] (PPC-1, 96 h) it was more than 100 µM; in [6] it was more than 100 µM. Moreover, in data set [7] (DU-145, 96 h, read-out: IC50 DU145), the IC50 was approximately 100 µM.
As for `CCCCCCCCCCCCCCCCCCNC(=O)[C@@H]1CSC(c2ccc(-c3ccccc3)cc2)N1` (mixture of isomers) [Compound 27-HCI, (2RS, 4R)-2-Biphenyl-4-yl-thiazolidine-4-carboxylic acid octadecylamide Hydrochloride], the IC50 in data set [3] (setting [11]) is more than 20 µM; in data set [2] (setting [12]), more than 20 µM; in [4] (TSU-Pr1, Table 4, 96 h), more than 20 µM; in data set [8] (setting [14]) it was more than 20 µM; in data set [5] (PPC-1, Table 4, 96 h) it was more than 20 µM; in data set [6] (Table 4), more than 20 µM. Moreover, the IC50 in data set [7] (setting [13]) is more than 20 µM.
`CCCCCCCCCCCCCCCCCCNC(=O)[C@@H]1CSC(c2c(Cl)cccc2Cl)N1` (mixture of isomers) [Compound 24, (2RS, 4R)-2-(2,6-Dichloro-phenyl)-thiazolidine-4-carboxylic acid octadecylamide]: the IC50 was more than 20 µM in data set [3] (setting [11]); 13.1 µM in [2] (setting [12]); approximately 20 µM in data set [4] (TSU-Pr1, Table 4, 96 h); 17.7 µM in [8] (setting [14]); 17.1 µM in data set [5] (PPC-1, Table 4, 96 h); more than 20 µM in data set [6] (Table 4). Also, the IC50 in data set [7] (setting [13]) was more than 20 µM.
`CCCCCCCCCCCCC1N[C@H](C(=O)O)CS1` (some centres unmarked): the IC50 in data set [3] (RH7777, Example 11 table, 96 h) is more than 20 µM; in [2] (setting [15]) it was 16.1 µM; in data set [4] (setting [16]), approximately 20 µM; in data set [8] (MCF7, Example 11 table, 96 h), 16.3 µM; in [5] (PPC-1, Example 11 table, 96 h) it was 12.6 µM; in data set [6] (Example 11 table), approximately 20 µM. Besides, in [7] (setting [17]), the IC50 was approximately 20 µM.
Turning to `O=C(O)[C@@H]1CSC(c2ccc(-c3ccccc3)cc2)N1` (some centres unmarked), the IC50 was more than 100 µM in data set [3] (RH7777, Example 11 table, 96 h); 71 µM in data set [2] (setting [15]); approximately 100 µM in data set [4] (setting [16]); more than 100 µM in [8] (MCF7, Example 11 table, 96 h); more than 100 µM in [5] (PPC-1, Example 11 table, 96 h); more than 100 µM in data set [6] (Example 11 table). Further, the IC50 in data set [7] (setting [17]) was more than 100 µM.
